Results from PubChem BioAssay AID1963982 (Molecular Pharmacology Branch, DTP, NCI, 2024).

Tested on: 313798-341-R-J2-PDC spheroids, viability
Test: Anticancer human tumor 313798-341-R-J2-PDC patient-derived cervical squamous cell carcinoma cell line growth inhibition [PI3K]
Details: spheroids with HUVEC and MSC; for IC50: curve of first compound; for viability, T/C: stronger effect = lower value
Outline: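 We assembled tumor spheroids that included a stromal compartment of HUVEC and MSCs, then exposed them to targeted agents alone and together with PI3K pathway inhibitors. Concentration series descended by half-log from clinically achievable Cmax levels. Viability served as the endpoint.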

[1] = second compound 0.00316 µM, first compound 0.000316 µM
[2] = second compound 0.00316 µM, first compound 0.001 µM
[3] = second compound 0.00316 µM, first compound 0.00316 µM
[4] = second compound 0.00316 µM, first compound 0.01 µM
[5] = second compound 0.00316 µM, first compound 0.0316 µM
[6] = second compound 0.00316 µM, first compound 0.1 µM
[7] = second compound 0.01 µM, first compound 0.000316 µM
[8] = second compound 0.01 µM, first compound 0.001 µM
[9] = second compound 0.01 µM, first compound 0.00316 µM
[10] = second compound 0.01 µM, first compound 0.01 µM
[11] = second compound 0.01 µM, first compound 0.0316 µM
[12] = second compound 0.01 µM, first compound 0.1 µM
[13] = second compound 0.0316 µM, first compound 0.000316 µM
[14] = second compound 0.0316 µM, first compound 0.001 µM
[15] = second compound 0.0316 µM, first compound 0.00316 µM
[16] = second compound 0.0316 µM, first compound 0.01 µM
[17] = second compound 0.0316 µM, first compound 0.0316 µM
[18] = second compound 0.0316 µM, first compound 0.1 µM
[19] = second compound 0.1 µM, first compound 0.000316 µM
[20] = second compound 0.1 µM, first compound 0.001 µM
[21] = second compound 0.1 µM, first compound 0.00316 µM
[22] = second compound 0.1 µM, first compound 0.01 µM
[23] = second compound 0.1 µM, first compound 0.0316 µM
[24] = second compound 0.1 µM, first compound 0.1 µM
[25] = second compound 0.316 µM, first compound 0.000316 µM
[26] = second compound 0.316 µM, first compound 0.001 µM
[27] = second compound 0.316 µM, first compound 0.00316 µM
[28] = second compound 0.316 µM, first compound 0.01 µM
[29] = second compound 0.316 µM, first compound 0.0316 µM
[30] = second compound 0.316 µM, first compound 0.1 µM
[31] = second compound 1 µM, first compound 0.000316 µM
[32] = second compound 1 µM, first compound 0.001 µM
[33] = second compound 1 µM, first compound 0.00316 µM
[34] = second compound 1 µM, first compound 0.01 µM
[35] = second compound 1 µM, first compound 0.0316 µM
[36] = second compound 1 µM, first compound 0.1 µM
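Also: spheroids exposed to compounds for seven days.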
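For viability, T/C in this document: 100% = DMSO vehicle control viability.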

SMILES: Cn1ncnc1[C@H]1c2n[nH]c(=O)c3cc(F)cc(c23)N[C@@H]1c1ccc(F)cc1 + CC(Nc1ccc2c(c1)OCCn1cc(N3C(=O)OCC3C(F)F)nc1-2)C(N)=O
- IC50 (second compound 0.00316 µM): > 100 nM
- IC50 (second compound 0.01 µM): > 100 nM
- IC50 (second compound 0.0316 µM): > 100 nM
- IC50 (second compound 0.1 µM): > 100 nM
- IC50 (second compound 0.316 µM): > 100 nM
- IC50 (second compound 1 µM): 22.5 nM
- viability, T/C [1]: 104%
- viability, T/C [2]: 96.2%
- viability, T/C [3]: 99.1%
- viability, T/C [4]: 98.1%
- viability, T/C [5]: 94.9%
- viability, T/C [6]: 84.7%
- viability, T/C [7]: 95.7%
- viability, T/C [8]: 104%
- viability, T/C [9]: 88.5%
- viability, T/C [10]: 93.5%
- viability, T/C [11]: 92.8%
- viability, T/C [12]: 83.5%
- viability, T/C [13]: 107%
- viability, T/C [14]: 102%
- viability, T/C [15]: 115%
- viability, T/C [16]: 106%
- viability, T/C [17]: 100%
- viability, T/C [18]: 100%
- viability, T/C [19]: 102%
- viability, T/C [20]: 102%
- viability, T/C [21]: 91.7%
- viability, T/C [22]: 89%
- viability, T/C [23]: 96.9%
- viability, T/C [24]: 72.8%
- viability, T/C [25]: 77.2%
- viability, T/C [26]: 78%
- viability, T/C [27]: 78.3%
- viability, T/C [28]: 73.6%
- viability, T/C [29]: 71.3%
- viability, T/C [30]: 58.1%
- viability, T/C [31]: 57.5%
- viability, T/C [32]: 57%
- viability, T/C [33]: 58.3%
- viability, T/C [34]: 48.1%
- viability, T/C [35]: 52.1%
- viability, T/C [36]: 38.1%

SMILES: Cn1ncnc1[C@H]1c2n[nH]c(=O)c3cc(F)cc(c23)N[C@@H]1c1ccc(F)cc1 + COc1c(OCCCN2CCOCC2)ccc2c3n(c(=NC(=O)c4cnc(N)nc4)nc12)CCN3
- IC50 (second compound 0.00316 µM): > 100 nM
- IC50 (second compound 0.01 µM): > 100 nM
- IC50 (second compound 0.0316 µM): > 100 nM
- IC50 (second compound 0.1 µM): < 0.316 nM
- IC50 (second compound 0.316 µM): < 0.316 nM
- IC50 (second compound 1 µM): < 0.316 nM
- viability, T/C [1]: 97.5%
- viability, T/C [2]: 95.9%
- viability, T/C [3]: 107%
- viability, T/C [4]: 111%
- viability, T/C [5]: 97.9%
- viability, T/C [6]: 93.1%
- viability, T/C [7]: 106%
- viability, T/C [8]: 107%
- viability, T/C [9]: 99%
- viability, T/C [10]: 89.6%
- viability, T/C [11]: 87.9%
- viability, T/C [12]: 87.3%
- viability, T/C [13]: 68.4%
- viability, T/C [14]: 97.1%
- viability, T/C [15]: 75.8%
- viability, T/C [16]: 71.5%
- viability, T/C [17]: 64.2%
- viability, T/C [18]: 65.1%
- viability, T/C [19]: 39.6%
- viability, T/C [20]: 49.8%
- viability, T/C [21]: 46.6%
- viability, T/C [22]: 43.6%
- viability, T/C [23]: 42.4%
- viability, T/C [24]: 37.1%
- viability, T/C [25]: 17.3%
- viability, T/C [26]: 18.4%
- viability, T/C [27]: 15.1%
- viability, T/C [28]: 15.7%
- viability, T/C [29]: 12.8%
- viability, T/C [30]: 15.7%
- viability, T/C [31]: 11.8%
- viability, T/C [32]: 14.1%
- viability, T/C [33]: 14.5%
- viability, T/C [34]: 12.5%
- viability, T/C [35]: 13.9%
- viability, T/C [36]: 10.1%

SMILES: CC(C)n1nc(-c2ccc3oc(N)nc3c2)c2c(N)ncnc21 + Cc1nc(NC(=O)N2CCCC2C(N)=O)sc1-c1ccnc(C(C)(C)C(F)(F)F)c1
- IC50 (second compound 0.0316 µM): 59 nM
- IC50 (second compound 0.1 µM): 59.6 nM
- IC50 (second compound 0.316 µM): 46.6 nM
- IC50 (second compound 1 µM): 25.5 nM
- IC50 (second compound 3.16 µM): 4.22 nM
- IC50 (second compound 10 µM): < 0.316 nM
- viability, T/C [13]: 91.6%
- viability, T/C [14]: 96%
- viability, T/C [15]: 107%
- viability, T/C [16]: 94.6%
- viability, T/C [17]: 67.5%
- viability, T/C [18]: 35.3%
- viability, T/C [19]: 100%
- viability, T/C [20]: 93.6%
- viability, T/C [21]: 96.9%
- viability, T/C [22]: 91.1%
- viability, T/C [23]: 66.5%
- viability, T/C [24]: 36.5%
- viability, T/C [25]: 98.6%
- viability, T/C [26]: 91.6%
- viability, T/C [27]: 97.8%
- viability, T/C [28]: 76.8%
- viability, T/C [29]: 56.6%
- viability, T/C [30]: 39%
- viability, T/C [31]: 92%
- viability, T/C [32]: 84.2%
- viability, T/C [33]: 77.3%
- viability, T/C [34]: 64.4%
- viability, T/C [35]: 46%
- viability, T/C [36]: 30%
- viability, T/C (second compound 3.16 µM, first compound 0.000316 µM): 63.9%
- viability, T/C (second compound 3.16 µM, first compound 0.001 µM): 55.1%
- viability, T/C (second compound 3.16 µM, first compound 0.00316 µM): 54.2%
- viability, T/C (second compound 3.16 µM, first compound 0.01 µM): 43.5%
- viability, T/C (second compound 3.16 µM, first compound 0.0316 µM): 34.5%
- viability, T/C (second compound 3.16 µM, first compound 0.1 µM): 21.4%
- viability, T/C (second compound 10 µM, first compound 0.000316 µM): 35.2%
- viability, T/C (second compound 10 µM, first compound 0.001 µM): 32.2%
- viability, T/C (second compound 10 µM, first compound 0.00316 µM): 30.9%
- viability, T/C (second compound 10 µM, first compound 0.01 µM): 25.1%
- viability, T/C (second compound 10 µM, first compound 0.0316 µM): 23.9%
- viability, T/C (second compound 10 µM, first compound 0.1 µM): 14.4%
